Experiments:
[1] = test system: guinea pig aortic strip; experiment: Vasorelaxant activity, calcium-induced contraction of K+-depolarized; conditions: result in words
[2] = test system: guinea pig left atrium; conditions: up to 10 μM; cited from earlier work
[3] = molecular target: ΔF508-CFTR (Homo sapiens, UniProt P13569, DEL508-508); experiment: ΔF508-CFTR potentiator assay, HS-YFP fluorescence quenching; assay type: cell-based; conditions: FRT cells, forskolin 20 μM; Hill fit

O=c1c(-c2ccc(O)cc2)coc2cc(O)cc(O)c12 [genistein, reference compound]
vascular effect in K+-depolarized (80 mM) vascular smooth muscle [1]: inactive
inotropic activity [2]: positive inotropic activity
nH (Hill coefficient) [3]: 1.3

Source: PMC3108470 (Journal of Medicinal Chemistry, 2011)
